Laboratory results from US9493453B2, “Piperazinyl pyrimidine derivatives, preparation method and use thereof” (INSTITUTE OF PHARMACOLOGY AND TOXICOLOGY ACADEMY OF …, priority 2012, dated 2016).
Where two headings read alike, the source gives them in different places.

Columns and labels:
[1] = target: T1, CCR4 receptor (Homo sapiens, UniProt P51679); assay: Inhibition of MDC/TARC/C27 mediated chemotactic response of CCR4-transfected HEK293 cells (Boyden chamber); type: cell-based; conditions: chemotactic inhibition rate, compound 1 μM, HEK293 cells transfected with pCDI-CCR4, 5 hours
T1 construct: cDNA fragments of receptor open reading frame were respectively inserted into pcDI; expressed in transfected cells; host or cells: HEK293 cells, transiently transfected by electroporation with pCDI-CCR4
T1 sequence (P51679 1-360): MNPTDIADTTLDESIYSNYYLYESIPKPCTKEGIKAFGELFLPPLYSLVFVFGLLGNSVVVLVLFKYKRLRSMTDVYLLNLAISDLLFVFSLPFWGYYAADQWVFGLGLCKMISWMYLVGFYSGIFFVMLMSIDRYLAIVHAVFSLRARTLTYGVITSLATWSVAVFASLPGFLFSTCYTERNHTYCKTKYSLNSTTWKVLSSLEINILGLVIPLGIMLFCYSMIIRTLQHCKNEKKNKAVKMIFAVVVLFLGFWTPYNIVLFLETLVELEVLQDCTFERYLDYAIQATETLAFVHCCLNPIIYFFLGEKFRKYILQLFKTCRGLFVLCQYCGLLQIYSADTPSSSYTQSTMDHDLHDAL
From the text: Whether or not compounds 1-14 of the present invention can inhibit MDC (Peprotech) mediated chemotactic response of HEK293 cells was studied by using Boyden chamber (Neuro Probe, Inc.).
1. Construction of Receptor Expression Plasmid:
cDNA fragments including human chemokine receptor open reading frame were obtained by the following method: CCR4 receptor was cloned from a cDNA library of K562 cells through polymerase chain reaction (PCR). Primers were designed according to the sequence of Gen-Bank™ accession: CCR4 (NM_005508.2). cDNA fragments of receptor open reading frame were respectively inserted into pcDI (vector transformed in the chamber: eukaryotic expression vector obtained by replacing a BglII KpnI fragment of pcDNA3 (Invitrogen Corporation) plasmid with a BglII KpnI fragment of pCI (Promega Corporation) plasmid) expression vector so as to make them effectively express in HEK293 cells.
HEK293 cells were cultured in RPMI 1640 (Life Technologies, Inc.) containing 10% heat-inactivated fetal bovine serum, 100 U/mL penicillin, 100 μg/mL streptomycin. Each 4×10^6 HEK293 cells/400 μL were transiently transfected through electroporation with 15 μg chemokine receptor expression plasmids, under the condition of 120 V for 20 ms, the instrument used being electric pulse generator (Electro Square porator ECM 830, BTX, San Diego, Calif.). After 36-48 hr, chemotactic assay was carried out.
3. The Inhibitory Effect on MDC/TARC/C27 Mediated Chemotactic Response of HEK293 Cells
Chemokines MDC/TARC/C27 were diluted to 10 ng/mL with RPMI1640 (Life Technologies, Inc.), 0.1% BSA (Sigma), and added to lower holes in a 48-hole chemotactic chamber, 27.5 μL each hole. Eukaryotic expression plasmids pCDI-CCR4 were electrically shifted to HEK293 cells, and cultured normally for 36 hr. The cells were digested, re-suspended with RPMI1640, 10% FBS (Life Technologies, Inc.), and subjected to rotary incubation at 37° C. for 6.5 hours. The cells were washed twice with RPMI1640, and suspended in RPMI1640, 0.1% BSA, with a final concentration of 1×10^6/mL. The cells and the candidate compound dissolved in DMSO (Sigma) were subjected to rotary incubation at room temperature for half an hour, the final concentration of the candidate compound being 1 μM, and the final concentration of DMSO being 0.1%, and then added to upper holes in the chemotactic chamber, 55 μL each hole. The two layers were spaced by a polycarbon membrane with pore size of […] (Neuro Probe, Inc.). The chemotactic reaction was carried out in 5% CO2 at 37° C. for 5 hours. There were three groups of control in the experiment, wherein the first group was positive control, in which the transfected cells were directly added to upper holes without incubated with the candidate compound, while chemokines MDC/TARC/C27 were added to lower holes. The second group was negative control, in which the transfected cells were directly added to upper holes without incubated with the candidate compound, while RPMI1640, 0.1% BSA were added to lower holes. The third group was solvent DMSO control of the candidate compound, in which the transfected cells and DMSO were incubated at room temperature, the final concentration of DMSO being 0.1%, while chemokines MDC/TARC/C27 were added to lower holes. After completion of the chemotactic reaction, the membrane was removed, fixed and stained, and, at 400× high magnification, five horizons were randomly selected to count the cells, which were then summed. The ratio of the sum of the numbers of cells in five horizons at high magnification in each experimental group to the sum of the numbers of cells in five horizons at high magnification in the negative control group is obtained as Chemotactic Index (CI). Chemotactic inhibition rate was calculated as follows: […]

[2] = test system: mice rhinitis model; assay: Mice rhinitis model experiment (OVA-sensitized BALB/c mice); type: in vivo; conditions: Example 8 compound 1 μg/Kg
Procedure: Mice Rhinitis Model Experiment
Female BALB/c mice (6-8 weeks) were sensitized with chicken ovalbumin (OVA, Sigma-Aldrich, St Louis, Mo., USA). The compound of the present invention (for example, the compound of Example 8) was administered to nasal mucosa, at a dose 1 μg/Kg. Glucocorticoid hormonal drug budesonide, a first-line clinical drug, was used as positive control, at a dose 1.28 mg/Kg. Meanwhile, there were provided a normal group wherein the mice were not sensitized and not administered, and an OVA group wherein the mice were sensitized and not administered. The following five indicators were detected: the number of sneezing, the number of nasal scratching within 10 min after administration; IL-4 level in bronchoalveolar lavage fluid; serum IgE level; lung tissue inflammation score. Lung tissue inflammation score was rated according to a single blind method: inflammation was divided into four levels from mild to severe, marked as 0-3 scores: 0 representing no detected inflammation; 1 representing occasional inflammatory cells being visible; 2 representing bronchus or blood vessel being surrounded by eosinophils, but less than five cell layers; 3 representing bronchus or blood vessel being surrounded by a large number of eosinophils, with 5 or more cell layers.

[3] = OVA-sensitized female BALB/c mice, nasal mucosa, budesonide 1.28 mg/Kg, within 10 min after administration
[4] = versus OVA-sensitized group, budesonide 1.28 mg/Kg

inhibition at 1 µM ([1]; chemokine C27 10 ng/mL, read-out: C27 inhibition rate): 69.8%
inhibition at 1 µM ([1]; chemokine MDC 10 ng/mL, read-out: MDC inhibition rate): 79.2%
inhibition at 1 µM ([1]; chemokine TARC 10 ng/mL, read-out: TARC inhibition rate): 60.4%
Structure (SMILES): O=C([C@H]1CCCCN1)N1CCN(c2nc(Cl)cc(NCc3ccc(Cl)cc3Cl)n2)CC1 [Compound 8, (R)-{4-{4-chloro-6-[(2,4-dichlorobenzyl)amino]pyrimidin-2-yl}piperazin-1-yl}(piperidin-2-yl)methanone]
IL-4 ([2]; IL-4 level in bronchoalveolar lavage fluid, OVA-sensitized mice, budesonide 1.28 mg/Kg): 3.7 ± 0.3 pg/mL
Nasal scratching [2, 3]: 8.0 ± 0.6 times/10 mins
Sneezing [2, 3]: 29.0 ± 3.5 times/10 mins
Inflammation score ([2]; lung tissue inflammation score 0-3, single blind, OVA-sensitized mice, budesonide 1.28 mg/Kg): 2.2 ± 0.4
IgE ([2]; serum IgE level, OVA-sensitized mice, budesonide 1.28 mg/Kg): 2861 ± 49 ng/mL
serum IgE level (result in words) ([2]; versus OVA-sensitized and normal control groups, budesonide 1.28 mg/Kg): higher than that of the normal control group
IL-4 level in bronchoalveolar lavage fluid (result in words) [2, 4]: significantly lower than that of the OVA-sensitized group
lung tissue inflammation score (result in words) [2, 4]: lower than that of the OVA-sensitized group
number of sneezing (result in words) [2, 4]: could significantly reduce the number of sneezing
number of nasal scratching (result in words) ([2]; versus other groups): lower than that of any of other groups
